The record followed here is patent US20230407373A1 (priority 2020, published 2023).

Assay type in all cases: binding
For experiment [1], the system named is SARS-CoV-2 gRNA and sgRNAs. The note with it: for background (unweighted spectral count in control): no-probe control pull-down, used as background for Probe II; for target (unweighted spectral count in RNP capture): Probe II capture, LC-MS/MS LFQ.
A further experiment deals with SARS-CoV-2 gRNA. As to conditions: for target (unweighted spectral count of the protein in the RNP capture): LC-MS/MS, Probe I sample (first 199 lines of Table 2).
Another experiment concerns HCoV-OC43 gRNA and sgRNA. As to conditions: for target (unweighted spectral count, OC43 Probe II capture) / target (unweighted spectral count): tested against no-probe control; for target (unweighted spectral count, OC43 Probe II capture): FDR<10%; for target (unweighted spectral count): OC43 Probe II, infected cells; for target (unweighted spectral count, OC43 Probe II) / background (unweighted spectral count, no-probe control): type n_48_v, 48 hpi; for target (unweighted spectral count, OC43 Probe II): OC43 Probe II capture on infected cells; for background (unweighted spectral count, no-probe control): no-probe control on infected cells; for target (spectral count) / background (spectral count): type s_36_m, Probe II; for target (spectral count): HCoV-OC43-infected HCT-8 cells; for background (spectral count): uninfected-probe control.

In another experiment the test system is gRNA of HCoV-OC43. As to conditions: for target (spectral count, OC43 Probe I RNP capture) / background (spectral count, no-probe control): type n_48_v: 48 hours post-infection; for target (spectral count, OC43 Probe I RNP capture): infected cells, unweighted spectral count; for background (spectral count, no-probe control): no-probe control on infected cells; for target (spectral count) / background (spectral count): type g_36_m, 36 hpi, Probe I; for target (spectral count): HCoV-OC43-infected HCT-8 cells; for background (spectral count): uninfected-probe control.

Entries after “also recorded” stand apart in the source; their conditions may differ. Where two headings read alike, the source gives them in different places.

HNRNPU: in experiment [1], the “background (unweighted spectral count in control)” value turned out to be 3. The “target (unweighted spectral count of the protein in the RNP capture)” value with SARS-CoV-2 gRNA turned out to be 75. Moreover, the “target (unweighted spectral count, OC43 Probe II capture)” value in the experiment with HCoV-OC43 gRNA and sgRNA (36 hpi, type n_36_v) was determined as 69. Further, the “target (unweighted spectral count)” value with HCoV-OC43 gRNA and sgRNA (12 hpi (type n_12_v)) is 24. The “target (unweighted spectral count)” value in the experiment on HCoV-OC43 gRNA and sgRNA (24 hpi (type n_24_v)) is 40. Also, in the experiment on HCoV-OC43 gRNA and sgRNA, the “target (unweighted spectral count, OC43 Probe II)” value amounted to 72 and the “background (unweighted spectral count, no-probe control)” value is listed as 8. Further, in the experiment on gRNA of HCoV-OC43, the “target (spectral count, OC43 Probe I RNP capture)” value was 80 and the “background (spectral count, no-probe control)” value was 8.

On to EIF4H: host protein, UniProt Q15056, for which, in experiment [1], the “enrichment in SARS-CoV-2 Probe II RNP capture” value was “enriched; also recorded: found in the SARS-CoV-2 experiments”, the “target (unweighted spectral count in RNP capture)” value amounted to 31 and the “background (unweighted spectral count in control)” value was found to be 1. Also, in the experiment on SARS-CoV-2 gRNA, the “enrichment in SARS-CoV-2 Probe I RNP capture” value was “enriched; also recorded: found in the SARS-CoV-2 experiments” and the “target (unweighted spectral count of the protein in the RNP capture)” value came out at 25. The “target (unweighted spectral count, OC43 Probe II capture)” value in the experiment on HCoV-OC43 gRNA and sgRNA (24 hpi, type n_24_v) came to 5. Moreover, the “target (unweighted spectral count, OC43 Probe II capture)” value in the experiment with HCoV-OC43 gRNA and sgRNA (36 hpi, type n_36_v) came to 8. For the same substance, in the experiment on HCoV-OC43 gRNA and sgRNA, the “target (unweighted spectral count, OC43 Probe II)” value is 9 and the “background (unweighted spectral count, no-probe control)” value is 1. In the experiment with HCoV-OC43 gRNA and sgRNA (36 hpi), the “target (spectral count)” value was found to be 8 and the “background (spectral count)” value amounted to 1. For the same substance, in the experiment on gRNA of HCoV-OC43, the “target (spectral count)” value was 8; the “background (spectral count)” value was found to be 1; the “target (spectral count, OC43 Probe I RNP capture)” value stood at 9; the “background (spectral count, no-probe control)” value was 1.

In the case of PABPC1: host protein, UniProt P11940, the “enrichment in SARS-CoV-2 Probe II RNP capture” value in experiment [1] is “enriched; also recorded: found in the SARS-CoV-2 experiments”. Besides, in the experiment on SARS-CoV-2 gRNA, the “enrichment in SARS-CoV-2 Probe I RNP capture” value is “enriched; also recorded: found in the SARS-CoV-2 experiments” and the “target (unweighted spectral count of the protein in the RNP capture)” value is 29. The “target (unweighted spectral count, OC43 Probe II capture)” value with HCoV-OC43 gRNA and sgRNA (36 hpi, type n_36_v) is reported as 23. Besides, in the experiment with HCoV-OC43 gRNA and sgRNA (12 hpi (type n_12_v)), the “target (unweighted spectral count)” value amounted to 7. Further, in the experiment on HCoV-OC43 gRNA and sgRNA (24 hpi (type n_24_v)), the “target (unweighted spectral count)” value was 18. Besides, in the experiment with HCoV-OC43 gRNA and sgRNA, the “target (unweighted spectral count, OC43 Probe II)” value came to 26 and the “background (unweighted spectral count, no-probe control)” value was 2. Moreover, in the experiment with HCoV-OC43 gRNA and sgRNA (36 hpi), the “target (spectral count)” value came out at 29 and the “background (spectral count)” value was determined as 3. In the experiment with gRNA of HCoV-OC43, the “target (spectral count)” value was found to be 22; the “background (spectral count)” value was 1; the “target (spectral count, OC43 Probe I RNP capture)” value is given as 23; the “background (spectral count, no-probe control)” value worked out at 2.

Take PTBP3: host protein, UniProt O95758: in experiment [1], the “enrichment in SARS-CoV-2 Probe II RNP capture” value is given as “found in the SARS-CoV-2 experiments” and the “background (unweighted spectral count in control)” value stood at 1. For the same substance, in the experiment on SARS-CoV-2 gRNA, the “enrichment in SARS-CoV-2 Probe I RNP capture” value is on record as “found in the SARS-CoV-2 experiments” and the “target (unweighted spectral count of the protein in the RNP capture)” value worked out at 23. In addition, in the experiment on HCoV-OC43 gRNA and sgRNA (36 hpi, type n_36_v), the “target (unweighted spectral count, OC43 Probe II capture)” value came to 8. In addition, in the experiment with HCoV-OC43 gRNA and sgRNA (24 hpi (type n_24_v)), the “target (unweighted spectral count)” value came to 7. Also, in the experiment on HCoV-OC43 gRNA and sgRNA, the “target (unweighted spectral count, OC43 Probe II)” value worked out at 12 and the “background (unweighted spectral count, no-probe control)” value was 2. In the experiment with HCoV-OC43 gRNA and sgRNA (36 hpi), the “target (spectral count)” value is recorded as 8 and the “background (spectral count)” value is recorded as 1. In the experiment with gRNA of HCoV-OC43, the “target (spectral count)” value was found to be 11; the “background (spectral count)” value is 1; the “target (spectral count, OC43 Probe I RNP capture)” value is 14; the “background (spectral count, no-probe control)” value stood at 2.

For the substance XRCC6, in experiment [1], the “target (unweighted spectral count in RNP capture)” value is listed as 9 and the “background (unweighted spectral count in control)” value amounted to 1. The “target (unweighted spectral count of the protein in the RNP capture)” value in the experiment with SARS-CoV-2 gRNA is 10. The “target (unweighted spectral count, OC43 Probe II capture)” value with HCoV-OC43 gRNA and sgRNA (36 hpi, type n_36_v) came out at 11. Moreover, the “target (unweighted spectral count)” value in the experiment on HCoV-OC43 gRNA and sgRNA (24 hpi (type n_24_v)) is listed as 7. In the experiment on HCoV-OC43 gRNA and sgRNA, the “target (unweighted spectral count, OC43 Probe II)” value is reported as 17 and the “background (unweighted spectral count, no-probe control)” value came out at 1. In addition, in the experiment with gRNA of HCoV-OC43, the “target (spectral count, OC43 Probe I RNP capture)” value worked out at 12 and the “background (spectral count, no-probe control)” value is reported as 1.
